Patent US4242335A, “Novel 17α-aryl-steroids” (Roussel Uclaf, priority 1977, dated 1980)

Columns and labels:
[1] = system: proliferation of endometric lacework (uterus); assay: In vivo progestomimetic activity, Clauberg test on immature rabbits; set-up: species or system rabbit; conditions: for progestomimetic activity in vivo (in words): compared with ethynylnortestosterone, Table III; for endometrial proliferation, MacPhail Units: subcutaneous, 5 days
Experimental: The progestomimetic activity of products A, B and C were determined by the Clauberg test on immature rabbits previously sensibilized by subcutaneous administration of estradiol for 5 days at a daily dose of 5 μg. The test products were used in solution in olive oil containing 5% of benzyl alcohol and were subcutaneously administered for 5 days at different doses. The animals were killed on the 6th day and the uterus was removed to determine the proliferation of endometric lacework which is characteristic of progestomimetic activity. The results were compared with ethynylnortesterone administered in the same method in the same solvent. The results were expressed in MacPhail units in Table III.

[2] = target: T1, uterine reception of progesterone (Oryctolagus cuniculus, UniProt P06186); assay: Progestomimetic activity by hormonal receptor method (displacement of tritiated product R in rabbit uterus cytosol); type: binding; conditions: for progestomimetic activity (in words): conclusion from Table I; for relative affinity of the test product (ARL), progestomimetic: rabbit uterus cytosol, 0° C., 2 hours, progesterone = 100; for activity weaker than progesterone: from Table I
T1 construct: from tissue; host or cells: uterus cytosol (105,000 g supernatant) of immature rabbits primed with estradiol
T1 sequence (P06186 1-930): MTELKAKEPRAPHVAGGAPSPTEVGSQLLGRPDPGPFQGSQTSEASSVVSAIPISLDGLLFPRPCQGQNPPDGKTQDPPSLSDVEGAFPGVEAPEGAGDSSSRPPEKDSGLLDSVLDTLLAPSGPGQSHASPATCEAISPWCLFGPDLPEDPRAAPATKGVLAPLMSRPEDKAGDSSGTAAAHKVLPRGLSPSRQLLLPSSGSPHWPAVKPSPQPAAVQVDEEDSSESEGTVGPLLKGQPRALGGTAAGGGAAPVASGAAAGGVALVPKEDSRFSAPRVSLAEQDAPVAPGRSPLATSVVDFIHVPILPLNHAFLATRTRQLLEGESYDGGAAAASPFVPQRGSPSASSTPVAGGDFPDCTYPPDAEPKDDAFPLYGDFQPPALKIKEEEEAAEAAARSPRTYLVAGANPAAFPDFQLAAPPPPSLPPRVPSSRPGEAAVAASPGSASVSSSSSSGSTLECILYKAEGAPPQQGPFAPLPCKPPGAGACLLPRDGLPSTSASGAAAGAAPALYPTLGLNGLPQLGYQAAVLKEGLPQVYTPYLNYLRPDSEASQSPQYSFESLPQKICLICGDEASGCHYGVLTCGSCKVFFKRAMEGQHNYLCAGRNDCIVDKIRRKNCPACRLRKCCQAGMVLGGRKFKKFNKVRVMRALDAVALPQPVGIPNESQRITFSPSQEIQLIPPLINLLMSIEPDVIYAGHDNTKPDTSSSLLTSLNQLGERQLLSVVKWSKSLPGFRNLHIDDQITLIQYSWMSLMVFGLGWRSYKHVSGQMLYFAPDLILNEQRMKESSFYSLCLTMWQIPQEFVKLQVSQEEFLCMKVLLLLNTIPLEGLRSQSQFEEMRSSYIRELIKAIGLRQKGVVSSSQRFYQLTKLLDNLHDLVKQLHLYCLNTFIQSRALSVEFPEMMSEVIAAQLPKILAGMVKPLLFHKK
Experimental: The progestomimetic activity was determined by the hormonal receptor method of Raynaud et al [J. Ster. Biochem., Vol. 6 (1975), p-615-622 and Physiology and Genetics of Reproduction, part A (1975), p. 143-160]. Immature rabbits received subcutaneously 25γ of estradiol and 5 days later, the animals were sacrificed and the uterus was removed and homogenized in a buffered solution of 10 mM of tromethamine, 0.25 M of saccharose and a pH of 7.4 with hydrochloric acid. The homogenate was centrifuged at 105,000 g during one hour and the surnageant or cytosol was adjusted to a dilution of 1/50 (weight/volume). The resulting solution was incubated at 0° C. for 2 hours in tubes with the same volume of cytosol with a fixed concentration of tritiated 17,21-dimethyl-19-nor-Δ^4,9 -pregnadiene-3-20-dione (designated as tritiated Product R) in the presence or not of an increasing concentration of radioinactive 17,21-dimethyl-19-nor-Δ^4,9 -pregnadiene-3,20-dione (designated as cold product R) or progesterone or the test product. The radioactivity of the tritiated product R was determined after 2 hours by the technique of adsorption on carbon-dextran (1.25-0.625%). The curves representing the percentage of tritiated product R as a function of the log of the concentration, of cold product R, of progresterone or the test products and the I50 straight line parallel to the axis of the abcissess and ordinates [formula] were ploted. B/T max. is the percentage of tied tritiated product R when the product is not added and B/T min. is the percentage of tied tritiated product R when the maximum amount of cold product R is added. The intersections of these I50 straight lines and the curves permit the determination of the values: CP and CX: CP - concentration of cold progesterone which inhibits by 50% the fixation of the tritiated product R and CX - concentration of test product which inhibits by 50% the fixation of the tritiated product R. The relative affinity of the test product (ARL) was determined by the formula [formula] and the results are reported in Table I.

[3] = target: T2, prostatic reception of testosterone (Rattus norvegicus, UniProt P15207); assay: Androgenic activity by hormonal receptor method (displacement of tritiated product R in rat prostate cytosol); type: binding; conditions: for relative affinity of the test product (ARL), androgenic: castrated male rat prostate cytosol, 0° C., 2 hours, testosterone = 100; for affinity for prostatic reception of testosterone (in words) / androgenic activity (in words): conclusion from Table II
T2 construct: The prostate was recovered from male rats castrated 24 hours earlier and was homogenized; from tissue; host or cells: prostate cytosol (105,000 g supernatant) of male rats castrated 24 hours earlier
T2 sequence (P15207 1-902): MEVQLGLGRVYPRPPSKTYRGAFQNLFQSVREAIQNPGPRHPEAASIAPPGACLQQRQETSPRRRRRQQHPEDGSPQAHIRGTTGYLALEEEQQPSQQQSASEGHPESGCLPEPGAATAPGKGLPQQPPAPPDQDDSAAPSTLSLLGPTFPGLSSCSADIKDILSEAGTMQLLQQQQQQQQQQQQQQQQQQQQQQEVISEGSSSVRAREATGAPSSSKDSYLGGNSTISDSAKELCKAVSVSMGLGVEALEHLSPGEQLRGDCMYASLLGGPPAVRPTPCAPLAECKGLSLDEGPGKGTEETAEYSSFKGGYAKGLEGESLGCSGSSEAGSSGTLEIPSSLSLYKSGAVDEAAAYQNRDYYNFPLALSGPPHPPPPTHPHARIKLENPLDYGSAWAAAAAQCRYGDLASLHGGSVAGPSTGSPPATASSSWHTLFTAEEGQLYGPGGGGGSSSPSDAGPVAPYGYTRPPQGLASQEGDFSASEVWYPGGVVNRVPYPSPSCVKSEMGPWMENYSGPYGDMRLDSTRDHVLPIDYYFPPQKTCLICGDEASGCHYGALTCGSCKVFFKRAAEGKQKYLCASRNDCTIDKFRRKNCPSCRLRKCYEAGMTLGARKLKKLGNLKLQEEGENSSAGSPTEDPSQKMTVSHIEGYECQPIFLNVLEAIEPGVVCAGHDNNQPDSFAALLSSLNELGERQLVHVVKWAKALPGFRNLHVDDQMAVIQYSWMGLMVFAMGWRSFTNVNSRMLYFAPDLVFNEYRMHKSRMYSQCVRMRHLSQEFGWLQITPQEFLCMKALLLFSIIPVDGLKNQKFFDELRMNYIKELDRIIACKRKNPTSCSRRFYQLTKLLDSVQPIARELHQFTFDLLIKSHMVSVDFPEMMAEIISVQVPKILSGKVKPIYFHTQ
Experimental: This test also used the method of Raynaud et al discussed above. The prostate was recovered from male rats castrated 24 hours earlier and was homogenized in a buffer containing 10 mM of tromethamine and 0.25 M of saccharose and sufficient hydrochloric acid for a pH of 7.4 The homogenate was centrifuged at 105,000 g for one hour and the surnageant liquid or cytosol was adjusted to a dilution of 1/5 (weight/volume).
The radioactivity of the tied tritiated product was determined after 2 hours by absorption technique on carbondextran (1.25%-0.625%). […] B/T max. is the percentage of tied tritiated product R when the product is not added and B/T min. is the percentage of tied tritiated product R when the maximum amount of cold product R is added.

SMILES | progestomimetic activity in vivo (in words) [1] | endometrial proliferation, MacPhail Units ([1]; dose 100 γ) | endometrial proliferation, MacPhail Units ([1]; dose 500 γ) | endometrial proliferation, MacPhail Units ([1]; dose 2500 γ) | affinity for specific uterine reception of progesterone (in words) ([2]; compared with progesterone) | progestomimetic activity (in words) [2] | relative affinity of the test product (ARL), progestomimetic [2] | relative affinity of the test product (ARL), androgenic [3] | affinity for prostatic reception of testosterone (in words) [3] | androgenic activity (in words) [3] | endometrial proliferation, MacPhail Units ([1]; dose 1 mg) | endometrial proliferation, MacPhail Units ([1]; dose 2 mg) | endometrial proliferation, MacPhail Units ([1]; dose 200 γ) | activity weaker than progesterone ([2]; compared with progesterone)
C[C@]12CC[C@H]3[C@@H](CCC4=CC(=O)CC[C@@H]43)[C@@H]1CC[C@@]2(O)c1ccccc1 [Product A, 17α-phenyl-Δ^4-estrene-17β-ol-3-one] | progestomimetic activity greater than ethynylnortestosterone | 2 MacPhail Units | 2.7 MacPhail Units | 3 MacPhail Units | comparable to that of progesterone | progestomimetics | 80 | 0.3 | practically devoid of an affinity | devoid of adrogenic activity | – | – | – | –
C[C@]12CCC3=C4CCC(=O)C=C4CC[C@H]3[C@@H]1CC[C@@]2(O)c1ccccc1 [Product B, 17α-phenyl-Δ^4,9-estradiene-17β-ol-3-one] | progestomimetic activity greater than ethynylnortestosterone | – | – | – | – | progestomimetics | 37 | 0.2 | practically devoid of an affinity | devoid of adrogenic activity | 2.8 MacPhail Units | 3.0 MacPhail Units | 1 MacPhail Units | about 3 times
C[C@]12C=CC3=C4CCC(=O)C=C4CC[C@H]3[C@@H]1CC[C@@]2(O)c1ccccc1 [Product C, 17α-phenyl-Δ^4,9,11-estratriene-17β-ol-3-one] | about the same order of activity as ethynylnortestosterone | – | – | – | – | progestomimetics | 27 | ≤ 0.1 | practically devoid of an affinity | devoid of adrogenic activity | 1.8 MacPhail Units | 2.9 MacPhail Units | 0.8 MacPhail Units | about 3 times
C#C[C@]1(O)CC[C@H]2[C@@H]3CCC4=CC(=O)CC[C@@H]4[C@H]3CC[C@@]21C [ethynylnortestosterone, reference compound] | – | 1.2 MacPhail Units | 1.5 MacPhail Units | 2 MacPhail Units | – | – | – | – | – | – | – | – | – | –
